Data set [1] deals with Raji cells. The data set can be described thus: BrdU incorporation assay, glucocorticoid sensitivity of oligonucleotide 4-expressing Raji cells. It counts as cell-based, human. The conditions noted are these: for BrdU incorporation: absorbance. The protocol:
In order to examine the glucocorticoid sensitivity of the oligonucleotide 4-expressin Raji cells, BrdU incorporation assay was performed in the same manner as in Example 2, and cell proliferation was quantified. The concentration of dexamethasone was set to 0 μM (no addition) or 5 μM. Each experiment was repeated in triplicate. The values shown in Table 13 are average of thereof.

The test system of data set [2] is GRα and GRβ. The data set can be described thus: GRα and GRβ expression levels in Raji cells transfected with oligonucleotide (RT-PCR and PCR).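 As to GAPDH: mean of three independent experiments.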 The class given is cell-based, human. The protocol: Raji cells (manufactured by Japan Health Science Foundation) derived from human Burkitt's lymphoma were used in experiments.
Raji cells were cultured and maintained in RPMI1640 medium (manufactured by Gibco) at 37° C. in an atmosphere of 5% CO2, the RPMI1640 medium being supplemented with 10% fetal bovine serum (FBS) (manufactured by Filtoron), 100 U/ml penicillin, and 100 μg/ml streptomycin.
2×10^6 Raji cells were washed with phosphate-buffered saline (PBS) and suspended in 100 μl transfection reagent of an Amaxa cell line Nucleofector Kit V (manufactured by Lonza).
After the Raji cells were cultured in the above-described medium for 24 hours, the Raji cells were used for subsequent experiments.
The expression level of glyceraldehyde-3-phosphate dehydrogenase (GAPDH) was determined as an endogenous control.
After the Raji cells were washed with PBS, RNA was extracted using a FastPure RNA Kit (manufactured by Takara Bio Inc.), and reverse transcription was performed using a PrimeScript 1st strand cDNA synthesis kit (manufactured by Takara Bio Inc.). The obtained cDNA was amplified using Platinum Taq DNA polymerase (manufactured by Invitrogen) and PCR primers (having the base sequences shown in Table 2) specific for the gene of interest. The PCR conditions included: performing initial denaturation at 94° C. for 2 minutes; performing 35 cycles of denaturation (94° C. for 30 seconds), annealing (55° C. for 30 seconds), and extension (72° C. for 1 minute); and then performing final extension at 72° C. for 4 minutes.
After the PCR was performed, DNA was separated by […] electrophoresis on a 2% agarose gel containing ethidium bromide, and the intensity of bands was quantified using an image analyzer GEL PRINT 2000i/VGA (manufactured by Genomic Solutions).

In data set [3] the test system is Raji cells. The data set can be described thus: BrdU incorporation assay, glucocorticoid sensitivity of oligonucleotide-transfected Raji cells. The class given is cell-based, human. The conditions noted are these: for BrdU incorporation: absorbance at 450 nm. As for the experimental part:
In order to examine the change of glucocorticoid sensitivity of cells caused by introduction of oligonucleotide 1, cell proliferation was quantified by a 5-bromo-2′-deoxyuridine (BrdU) incorporation assay. Dexamethasone (manufactured by Biomol) was used as a glucocorticoid. The concentration of dexamethasone was set to varied concentrations of 0 μM (no addition), 0.1 μM, 0.5 μM, 1 μM, 5 μM, and 10 μM.
Raji cells were cultured in serum-free RPMI1640 medium for 12 hours to synchronize the cell cycle, and then re-suspended in RPMI1640 medium supplemented with serum and inoculated onto a 96-well plate.
After dexamethasone was added, the cells were cultured for 22 hours. Then, BrdU was added thereto, and the cells were cultured for another 2 hours. After centrifugation, the supernatant was discarded, and the cells were dried and fixed. The fixed cells were allowed to react with a peroxidase-labeled anti-BrdU antibody for 1 hour at room temperature. Subsequently, the cells were washed three times with PBS, and tetramethylbenzidine was added thereto. When noticeable coloring was observed, the reaction was stopped by adding H2SO4 (1M). After vigorous agitation, absorbance at 450 nm was measured using a plate reader.
Using the Raji cells to which dexamethasone was not added as a control, cell proliferation inhibitory rate (%) was calculated based on the relative ratio of the obtained absorbance. Here, statistical significance was assessed with one-way analysis of variance and multiple comparison. Tukey's multiple comparison was used for the multiple comparison. A significance level of P<0.05 (vs. no addition of oligonucleotide) was regarded as a significant difference.
BrdU incorporation assay was performed in the same manner as in the above, and alternation of the glucocorticoid sensitivity of the cells caused by the introduction of any one of oligonucleotides 2 to 5 was examined. Each experiment was carried out in quadruplicate. The values shown in Table 7 are average values thereof.
For orientation: Dividing cells build labelled thymidine or BrdU into new DNA.

In data set [4] the test system is GRα and GRβ. The experiment in a line: GRα and GRβ expression levels in oligonucleotide 4-expressing Raji cells.
[5] abbreviates: expression level (band intensity), oligonucleotide 300 nM by electroporation, 24 h.
[6] abbreviates: Raji cells constitutively expressing oligonucleotide 4.
Where [7] appears, read: expression level (band intensity), Raji cells constitutively expressing oligonucleotide 4 (retrovirus vector).
The mark [8] stands for this setting: expression level (band intensity), Raji cells constitutively expressing oligonucleotide 4 (retrovirus vector), listed as oligonucleotide 4.

Where two headings read alike, the source gives them in different places.

Take “Oligonucleotide 4: an oligonucleotide having a base sequence represented by SEQ ID NO: 4 (5′-TTTGTCCCCATTATATAGCATTT-3′) (listed as DNA, chemistry not given here)”: the BrdU incorporation in the data set on Raji cells [1] (oligonucleotide 4-expressing Raji cell, dexamethasone 0 μM) is given as 1.13. For the same compound, the glucocorticoid sensitivity entry in the data set on Raji cells [1] (constitutive expression of oligonucleotide 4 in Raji cells, in words) was “increases glucocorticoid sensitivity”. The GAPDH is 2991.776 with GRα and GRβ [2] (expression level (band intensity), endogenous control, oligonucleotide 300 nM by electroporation, 24 h); 6428.135 in the data set on GRα and GRβ [4] (expression level (band intensity), endogenous control, Raji cells constitutively expressing oligonucleotide 4 (retrovirus vector)). Besides, the GRα in the data set with GRα and GRβ [2] (setting [5]) is on record as 3157.440; with GRα and GRβ [4] (setting [7]), 4803.456; with GRα and GRβ [4] (setting [8]), “increases the expression level of GRα”. The GRβ is 4592.806 in the data set with GRα and GRβ [2] (setting [5]); 1866.325 in the data set on GRα and GRβ [4] (setting [7]); “decreases the expression level of GRβ” in the data set on GRα and GRβ [4] (setting [8]). Moreover, the GRα/GAPDH stood at 1.057 with GRα and GRβ [2] (oligonucleotide 300 nM); 0.747 with GRα and GRβ [4] (setting [6]). The GRβ/GAPDH amounted to 1.533 in the data set on GRα and GRβ [2] (oligonucleotide 300 nM); 0.290 in the data set with GRα and GRβ [4] (setting [6]). In addition, the “cell proliferation inhibitory rate” value with Raji cells [3] (dexamethasone 0.1 μM, quadruplicate (Table 7), label dexamethasone = no oligonucleotide transfected) is 12.464%; in the data set with Raji cells [3] (dexamethasone 0.5 μM, quadruplicate (Table 7), label dexamethasone = no oligonucleotide transfected), 23.397%; in the data set with Raji cells [3] (dexamethasone 1 μM, quadruplicate (Table 7), label dexamethasone = no oligonucleotide transfected), 28.863%; with Raji cells [3] (dexamethasone 5 μM, quadruplicate (Table 7), label dexamethasone = no oligonucleotide transfected), 28.061%.

In the case of `C[C@@H]1C[C@H]2[C@@H]3CCC4=CC(=O)C=C[C@]4(C)[C@@]3(F)[C@@H](O)C[C@]2(C)[C@@]1(O)C(=O)CO` [dexamethasone, reference compound], the BrdU incorporation stood at 1.07 in the data set with Raji cells [1] (dexamethasone 5 μM, label dexamethasone = Control Raji cell); 0.475 in the data set with Raji cells [3] (dexamethasone 0.1 μM, triplicate, label dexamethasone = no oligonucleotide introduced); 0.461 in the data set on Raji cells [3] (dexamethasone 0.5 μM, triplicate, label dexamethasone = no oligonucleotide introduced); 0.479 with Raji cells [3] (dexamethasone 1 μM, triplicate, label dexamethasone = no oligonucleotide introduced); 0.422 in the data set with Raji cells [3] (dexamethasone 5 μM, triplicate, label dexamethasone = no oligonucleotide introduced); 0.418 in the data set on Raji cells [3] (dexamethasone 10 μM, triplicate, label dexamethasone = no oligonucleotide introduced). The inhibition at 0.1 µM in the data set with Raji cells [3] (Homo sapiens, Raji, dexamethasone 0.1 μM vs no dexamethasone, triplicate, label dexamethasone = no oligonucleotide introduced, read-out: cell proliferation inhibitory rate) came to 13.4%; in the data set with Raji cells [3] (Homo sapiens, Raji, dexamethasone 0.1 μM, quadruplicate (Table 7), label dexamethasone = no oligonucleotide transfected, read-out: cell proliferation inhibitory rate) it was 13.2%. Moreover, the inhibition at 0.5 µM in the data set on Raji cells [3] (Homo sapiens, Raji, dexamethasone 0.5 μM vs no dexamethasone, triplicate, label dexamethasone = no oligonucleotide introduced, read-out: cell proliferation inhibitory rate) was determined as 16.2%; with Raji cells [3] (Homo sapiens, Raji, dexamethasone 0.5 μM, quadruplicate (Table 7), label dexamethasone = no oligonucleotide transfected, read-out: cell proliferation inhibitory rate), 17.6%. Also, the inhibition at 1 µM turned out to be 12.6% in the data set on Raji cells [3] (Homo sapiens, Raji, dexamethasone 1 μM vs no dexamethasone, triplicate, label dexamethasone = no oligonucleotide introduced, read-out: cell proliferation inhibitory rate) and 22.2% with Raji cells [3] (Homo sapiens, Raji, dexamethasone 1 μM, quadruplicate (Table 7), label dexamethasone = no oligonucleotide transfected, read-out: cell proliferation inhibitory rate). The inhibition at 5 µM in the data set on Raji cells [3] (Homo sapiens, Raji, dexamethasone 5 μM vs no dexamethasone, triplicate, label dexamethasone = no oligonucleotide introduced, read-out: cell proliferation inhibitory rate) came to 23.3%; in the data set with Raji cells [3] (Homo sapiens, Raji, dexamethasone 5 μM, quadruplicate (Table 7), label dexamethasone = no oligonucleotide transfected, read-out: cell proliferation inhibitory rate) it was 21.7%. Moreover, the inhibition at 10 µM with Raji cells [3] (Homo sapiens, Raji, dexamethasone 10 μM vs no dexamethasone, triplicate, label dexamethasone = no oligonucleotide introduced, read-out: cell proliferation inhibitory rate) is 23.9%.

The record behind these values is patent publication US9234200B2, “Oligonucleotide, glucocorticoid sensitivity enhancer, pharmaceutical composition, and expression vector” (National University Corporation Tokyo University of …, priority 2011, dated 2016).
